36 molecules from patent US5484780A, “Angiotensin II antagonists” (Eli Lilly and Company, priority 1994, dated 1996) can be followed below.

SMILES strings stand for the structures. Where “and” joins values, the source holds several entries; their conditions need not be identical. Identical values can stand only once.

This assay has as its target T1, angiotensin-induced vasoconstriction (rabbit aorta) (Oryctolagus cuniculus, UniProt P34976).
T1 construct: The thoracic aortas were removed and cleaned of excess fat and connective tissue; from tissue; host or cells: thoracic aorta rings of New Zealand white rabbits (animals from Hazelton)
T1 sequence (P34976 1-359): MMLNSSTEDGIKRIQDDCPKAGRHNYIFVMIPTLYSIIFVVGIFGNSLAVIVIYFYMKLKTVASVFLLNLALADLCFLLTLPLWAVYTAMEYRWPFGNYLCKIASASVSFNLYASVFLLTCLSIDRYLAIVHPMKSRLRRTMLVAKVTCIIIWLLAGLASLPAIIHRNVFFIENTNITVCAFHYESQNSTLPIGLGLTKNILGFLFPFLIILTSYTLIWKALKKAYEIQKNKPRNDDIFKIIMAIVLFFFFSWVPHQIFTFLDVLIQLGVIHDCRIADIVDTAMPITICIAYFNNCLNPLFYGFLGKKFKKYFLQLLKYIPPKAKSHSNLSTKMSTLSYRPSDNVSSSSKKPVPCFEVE
As to the kind of experiment: Rabbit Aorta Test System: antagonism of angiotensin II contraction of aortic rings. On the set-up: species or system New Zealand white rabbits. To be noted: contraction to AII 10^-10 to 10^-7 M, 30 minutes incubation with compound; pA2 = -log KB. The protocol:
As previously discussed, the compounds of Formula I are potent effective antagonists of angiotensin II. The ability of representative compounds of Formula I to block angiotensin II receptor binding was determined using the adrenal glomerulosa assay. The ability to antagonize angiotensin-induced vasoconstriction was evaluated in the rabbit aorta test system.
New Zealand white rabbits (Hazelton, 2-3 kg) were sacrificed by cervical dislocation. The thoracic aortas were removed and cleaned of excess fat and connective tissue. Rings of tissue (3 mm wide) were mounted in 10 ml tissue baths between 2 L-shaped stainless steel hooks. The lower hook was attached to a stationary rod. The upper hook was attached to a force displacement transducer (Grass model FT.03). The bath chambers were maintained at 37° C., aerated with 95% 02 /5% C02, and contained physiological solution of the following composition (mM): NaCl, 117; glucose, 5.6; NaH2 PO4, 1.0; MgS04, 0.7; KCl, 5.2; CaCl2, 1.8; NaHCO3, 26; and phentolamine HCl, 0.003.
Rings were equilibrated for 1 hour with 2 g of tension. During the equilibration period, the tissues were washed by overflow every 15 minutes. Rings were then exposed to 10^-8 M angiotensin II (AII) and were allowed to contract until a steady state was reached. Tissues were then washed every 15 minutes for 1 hour. This was repeated every hour until the AII response stabilized. A cumulative concentration response curve to AII (10^-10 to 10^-7 M) was then obtained. At the conclusion of the concentration response curve, tissues were washed every 2 minutes until baseline tension was reached, then every 15 minutes for 30 minutes. Compounds were added in a volume of 10 μl DMSO and allowed to incubate for 30 minutes before repeating the concentration response curve to AII. Contractions to AII were expressed as a percent of the maximum contraction obtained in the control curve (the first AII concentration response curve). EC50 's (concentration that contracted the tissues to 1/2 the control maximum) for each curve were calculated using a 4 parameter logistics model (NonLin, SAS Institute). Potency data for each compound tested are expressed as the pA2 (defined as-log KB, where KB =[molar concentration of antagonist]/[(EC50 AII with antagonist/EC50 AII without antagonist)-1]).
In the case of `CCCCC(C(=O)N1C[C@@H](Oc2ccccc2)C[C@H]1C(=O)O)n1cnc(NC(=O)c2ccccc2S(=O)(=O)O)c1` (single isomer, unassigned) [Example 14, 1-[1-oxo-2-[4-(2-sulfobenzoyl)amino-1H-imidazol-1-yl]hexyl]-4-cis-phenoxy-L-proline], the antagonist equilibrium constant (Kb) – broadly, the equilibrium dissociation constant of an antagonist, usually derived from a functional assay – was 31.6 nM and 126 nM.

Turning to `CCCCCCC(C(=O)N1C[C@@H](Oc2ccc(OC)cc2)C[C@H]1C(=O)O)n1cnc(NC(=O)c2ccccc2S(=O)(=O)O)c1` (single isomer, unassigned) [Example 18], the Kb was 0.2 nM. Same read-out and setting: as for `CCCCCCC(C(=O)N1C[C@@H](Oc2ccc(O)cc2)C[C@H]1C(=O)O)n1cnc(NC(=O)c2ccccc2S(=O)(=O)O)c1` (single isomer, unassigned) [Example 19], the figure is 1.26 nM. `CCCCCCC(C(=O)N1C[C@@H](Oc2ccccc2)C[C@H]1C(=O)O)n1cnc(NC(=O)c2cccc(O)c2C(=O)O)c1` (single isomer, unassigned) [Example 20, 1-[1-oxo-2-[4-(2-carboxy-3-hydroxybenzoyl)amino-1H-imidazol-1-yl]octyl]-4-cis-phenoxy-L-Proline]: the Kb was 3.16 nM. As for `CCCCCCC(C(=O)N1CCC[C@H]1C(=O)O)n1cnc(NC(=O)c2ccccc2S(=O)(=O)O)c1` (single isomer, unassigned) [Example 21, 1-[1-Oxo-2-[4-(2-sulfobenzoyl)amino-1H-imidazol-1-yl]octyl]-L-proline], the Kb is 63.1 nM and 501 nM.

Turning to `CCCCCCC(C(=O)N1CCNC1=S)n1cnc(NC(=O)c2ccccc2S(=O)(=O)O)c1` (stereo not drawn) [Example 6, 2-[[[1-[1-[(2-thioxo-1-imidazolidinyl)carbonyl]-heptyl]-1H-imidazol-4-yl]amino]carbonyl]benzenesulfonic acid], the “Rabbit Aorta (pA2)” value is 6.3. On to `CCCCCCC(C(=O)N1CCC[C@@H]1C(=O)O)n1cnc(NC(=O)c2ccccc2S(=O)(=O)O)c1` (stereo partly drawn) [Example 11], for which the Kb is 200 nM and 251 nM. Same read-out and setting: as for `CCCCCC(C(=O)N1C[C@@H](Oc2ccccc2)C[C@H]1C(=O)O)n1cnc(NC(=O)c2ccccc2S(=O)(=O)O)c1` (stereo partly drawn) [Example 13, 1-[1-oxo-2-[4-(2-sulfobenzoyl)amino-1H-imidazol-1-yl]heptyl]-4-cis-phenoxy-L-proline], the figure is 63.1 nM and 126 nM; as for `O=C(Nc1cn(C(CCCCC(F)(F)F)C(=O)N2C[C@@H](Oc3ccccc3)C[C@H]2C(=O)O)cn1)c1ccccc1S(=O)(=O)O` (stereo partly drawn) [Example 16, 1-[1-Oxo-2-[4-(2-sulfobenzoyl)amino-1H-imidazol-1-yl]-7,7,7-trifluoroheptyl]-4-cis-phenoxy-L-proline], 50.1 nM; as for `CCCCCCC(C(=O)N1C[C@@H](Oc2cccnc2)C[C@H]1C(=O)O)n1cnc(NC(=O)c2ccccc2S(=O)(=O)O)c1` (stereo partly drawn) [Example 17, 1-[1-Oxo-2-[4-(2-sulfobenzoyl)amino-1H-imidazol-1-yl]octyl]4-cis-(3-pyridyloxy)-L-proline], 15.8 nM. On the same count and under the same terms, as for `CCCCCC[C@H](C(=O)N1C[C@@H](Oc2ccc(C)cc2)C[C@H]1C(=O)O)n1cnc(NC(=O)c2ccccc2S(=O)(=O)O)c1` [Example 22], the figure is 0.398 nM; as for `CCCCCC[C@H](C(=O)N1C[C@@H](Oc2ccc(CC)cc2)C[C@H]1C(=O)O)n1cnc(NC(=O)c2ccccc2S(=O)(=O)O)c1` [Example 23], 1.58 nM; as for `CCCCCC[C@H](C(=O)N1C[C@@H](Oc2ccc(C(C)C)cc2)C[C@H]1C(=O)O)n1cnc(NC(=O)c2ccccc2S(=O)(=O)O)c1` [Example 24], 25.1 nM. Regarding `CCCCCC[C@H](C(=O)N1C[C@@H](Oc2ccc(C(C)(C)C)cc2)C[C@H]1C(=O)O)n1cnc(NC(=O)c2ccccc2S(=O)(=O)O)c1` [Example 25], the Kb is 126 nM. For the molecule `CCCCCC[C@H](C(=O)N1C[C@@H](Oc2ccc(C3CCCC3)cc2)C[C@H]1C(=O)O)n1cnc(NC(=O)c2ccccc2S(=O)(=O)O)c1` [Example 26], the Kb is 2.51 nM.

Take `CCCCCC[C@H](C(=O)N1C[C@@H](Oc2ccc(-c3ccccc3)cc2)C[C@H]1C(=O)O)n1cnc(NC(=O)c2ccccc2S(=O)(=O)O)c1` [Example 27]: the Kb is 10 nM. In the case of `CCCCCC[C@H](C(=O)N1C[C@@H](Oc2ccc(F)cc2)C[C@H]1C(=O)O)n1cnc(NC(=O)c2ccccc2S(=O)(=O)O)c1` [Example 28], the “Rabbit Aorta (pA2)” value is recorded as 8.7.

As for `CCCCCC[C@H](C(=O)N1C[C@@H](Oc2ccc(C(F)(F)F)cc2)C[C@H]1C(=O)O)n1cnc(NC(=O)c2ccccc2S(=O)(=O)O)c1` [Example 29], the “Rabbit Aorta (pA2)” value came to 7.5.

For the molecule `CCCCCC[C@H](C(=O)N1C[C@@H](Oc2ccc(SC)cc2)C[C@H]1C(=O)O)n1cnc(NC(=O)c2ccccc2S(=O)(=O)O)c1` [Example 30], the Kb was 0.631 nM. `CCCCCC[C@H](C(=O)N1C[C@@H](Oc2ccc([S+](C)[O-])cc2)C[C@H]1C(=O)O)n1cnc(NC(=O)c2ccccc2S(=O)(=O)O)c1` (stereo partly drawn) [Example 31]: the “Rabbit Aorta (pA2)” value was found to be 8.9. Take `CCCCCC[C@H](C(=O)N1C[C@@H](Oc2ccc(S(C)(=O)=O)cc2)C[C@H]1C(=O)O)n1cnc(NC(=O)c2ccccc2S(=O)(=O)O)c1` [Example 32]: the Kb was 1.26 nM. On the same count and under the same terms, as for `CCCCCC[C@H](C(=O)N1C[C@@H](Oc2ccc(C(=O)O)cc2)C[C@H]1C(=O)O)n1cnc(NC(=O)c2ccccc2S(=O)(=O)O)c1` [Example 33], the figure is 1 nM; as for `CCCCCC[C@H](C(=O)N1C[C@@H](Oc2ccc(C(N)=O)cc2)C[C@H]1C(=O)O)n1cnc(NC(=O)c2ccccc2S(=O)(=O)O)c1` [Example 34], 3.16 nM. Still for that read-out and setting: as for `CCCCCC[C@H](C(=O)N1C[C@@H](Oc2ccc(CO)cc2)C[C@H]1C(=O)O)n1cnc(NC(=O)c2ccccc2S(=O)(=O)O)c1` [Example 35], the figure is 2 nM; as for `CCCCCC[C@H](C(=O)N1C[C@@H](Oc2ccc(CC(=O)O)cc2)C[C@H]1C(=O)O)n1cnc(NC(=O)c2ccccc2S(=O)(=O)O)c1` [Example 36], 0.398 nM; as for `CCCCCC[C@H](C(=O)N1C[C@@H](Oc2ccc(CCC(=O)O)cc2)C[C@H]1C(=O)O)n1cnc(NC(=O)c2ccccc2S(=O)(=O)O)c1` [Example 37], 0.398 nM. Same read-out and setting: as for `CCCCCC[C@H](C(=O)N1C[C@@H](Oc2ccc(-n3ccnc3)cc2)C[C@H]1C(=O)O)n1cnc(NC(=O)c2ccccc2S(=O)(=O)O)c1` [Example 38], the figure is 1.26 nM; as for `CCCCCC[C@H](C(=O)N1C[C@@H](Oc2ccc(S(=O)(=O)N3CCCC3)cc2)C[C@H]1C(=O)O)n1cnc(NC(=O)c2ccccc2S(=O)(=O)O)c1` [Example 39], 1 nM; as for `CCCCCC[C@H](C(=O)N1C[C@@H](Oc2ccc(S(=O)(=O)NC)cc2)C[C@H]1C(=O)O)n1cnc(NC(=O)c2ccccc2S(=O)(=O)O)c1` [Example 40], 0.501 nM. For `CCCCCC[C@H](C(=O)N1C[C@@H](Oc2ccc(-c3nc(C(=O)O)co3)cc2)C[C@H]1C(=O)O)n1cnc(NC(=O)c2ccccc2S(=O)(=O)O)c1` [Example 41], the Kb was 0.158 nM.

On to `CCCCCC[C@H](C(=O)N1C[C@@H](Oc2ccc(CCP(=O)(O)O)cc2)C[C@H]1C(=O)O)n1cnc(NC(=O)c2ccccc2S(=O)(=O)O)c1` [Example 42], for which the Kb is 1.26 nM. As for `CCCCCC[C@H](C(=O)N1C[C@@H](Oc2ccc(OP(=O)(O)O)cc2)C[C@H]1C(=O)O)n1cnc(NC(=O)c2ccccc2S(=O)(=O)O)c1` [Example 43], the Kb is 0.794 nM. `CCCCCC[C@H](C(=O)N1C[C@@H](Oc2ccc(P(=O)(O)O)cc2)C[C@H]1C(=O)O)n1cnc(NC(=O)c2ccccc2S(=O)(=O)O)c1` [Example 44]: the Kb is 5.01 nM. Turning to `CCCCCC[C@H](C(=O)N1C[C@@H](Oc2ccc(-n3cncn3)cc2)C[C@H]1C(=O)O)n1cnc(NC(=O)c2ccccc2S(=O)(=O)O)c1` [Example 45], the Kb is 0.251 nM.

Consider `CCCCCC[C@H](C(=O)N1C[C@@H](Oc2ccc(CC(=O)N(C)CC(=O)O)cc2)C[C@H]1C(=O)O)n1cnc(NC(=O)c2ccccc2S(=O)(=O)O)c1` [Example 46], for which the Kb is 2 nM. Consider `CCCCCC[C@H](C(=O)N1C[C@@H](Oc2ccc(CC(=O)N3CCC[C@H]3C(=O)O)cc2)C[C@H]1C(=O)O)n1cnc(NC(=O)c2ccccc2S(=O)(=O)O)c1` [Example 47], for which the Kb was 1 nM.
